Measurements: patent US20240132463A1, “SUBSTITUTED N-(2-(2,6-DIOXOPIPERIDIN-3-YL)-1,3-DIOXOISOINDOLIN-5-YL)ARYLSULFONAMIDE ANALOGS AS MODULATORS OF CEREBLON PROTEIN” (ST. JUDE CHILDREN'S RESEARCH HOSPITAL, INC., priority 2020, published 2024)

Key:
[1] = Plasma protein binding assay (mouse); format: in vitro ADME
Method: (§1) Stock solutions were prepared at 10 mM in DMSO. Dulbecco's phosphate buffered saline (DPBS; pH 7.4) was obtained from Invitrogen (Carlsbad, CA). Single-Use RED (rapid equilibrium dialysis) device was obtained from Thermo scientific (Rockford, IL). Human and mouse plasma were obtained from GeneTex (Irvine, CA). Sample preparation for plasma protein binding was modified from Waters' method (see Waters, N.J., et al., J Pharm Sci. 2008 October; 97(10):4586-95). The Teflon base plate with the RED inserts was used without any pre-conditioning the membrane inserts. Plasma was thawed and centrifuged at 1000 rpm for 10 min to remove any particulates. Each compound was prepared at 10 μM in human or mouse plasma. Spiked plasma solutions (300 μL) were placed into the sample chamber (indicated by the red ring) and 500 μL of DPBS into the adjacent chamber. The plate was sealed and incubated at 37° C. on an orbital shaker (100 rpm) for 4 hours. After incubation, the seal was removed from the RED plate and the volume of the insert confirmed-little to no volume change occurred. […] The test compound concentrations were quantified in both buffer and plasma chambers via peak areas relative to the internal standard. The percentage of the test compound bound to plasma was calculated on following equations: % Free=(Concentration buffer chamber/concentration plasma chamber)×100% and % Bound=100%-% Free.

[2] = test system: CRBN knockout MV4-11 cells; assay: Cell viability in CRBN knockout MV4-11 cells; format: cell-based, human; conditions: CRBN knockout vs wild-type MV4-11 cells
Method: MV-4-11 cell line was purchased from the American Type Culture Collection (ATCC, Manassas, VA). The cells were cultured according to recommendations in IMDM cell culture media (ATCC). Exponentially growing MV-4-11 cells were plated at 1,000 cells per well in Corning 8804BC white 384-well assay plates and incubated overnight at 37° C. in a humidified 5% CO2 incubator. Compounds were transferred to the assay plate from a dose-response plate using a Pintool on a Biomek FXP Laboratory Automation Workstation (Beckman Coulter). Cytotoxicity was determined following 72 hours of incubation using Promega Cell Titer Glo reagent according to the manufacturer's recommendation. Luminescence was measured on an Envision plate reader (Perkin-Elmer).
CRBN-deficient MV4:11 cells were generated using CRISPR-Cas9 technology. […] Five days post nucleofection, cells were single-cell sorted by FACs to enrich for GFP+(transfected) cells, clonally selected, and verified for the desired targeted modification via targeted deep sequencing using gene specific primers with partial Illumina adapter overhangs (hCRBN.F—5′-[sequence]-3′ (SEQID: 6) and hCRBN.R—5′-[sequence]-3′, (SEQID: 7); overhangs not shown) and analyzed using CRIS.py (Ref. 36).

[3] = Plasma protein binding assay (human); format: in vitro ADME
Method: as §1

[4] = Aqueous solubility assay; format: physicochemical; conditions: aqueous solubility at pH = 7.4, triplicate
Method: Solubility assays were carried out on a Biomek FX lab automation workstation (Beckman Coulter, Inc., Fullerton, CA) using μSOL Evolution software (pION Inc., Woburn, MA). 10 μL of 10 mM compound stock (in DMSO) was added to 190 μL 1-propanol to make a reference stock plate. 5 μL from this reference stock plate were mixed with 70 μL 1-propanol and 75 μL citrate phosphate-buffered saline (PBS;isotonic) to make the reference plate, and the UV spectrum (250-500 nm) of the reference plate was read. 6 μL of 10 mM test compound stock was added to 594 μL buffer in a 96-well storage plate and mixed. The storage plate was sealed and incubated at RT for 18 h. The suspension was then filtered through a 96-well filter plate (pION Inc., Woburn, MA). 75 μL of filtrate was mixed with 75 μL 1-propanol to make the sample plate, and the UV spectrum of the sample plate was read. Calculations were carried out with μSOL Evolution software based on the area under the curve (AUC) of the UV spectrum of the sample and reference plates. All compounds were tested in triplicate.

[5] = test system: MDCKII-MDR1 cells; assay: MDCKII-MDR1 permeability assay; format: in vitro ADME; conditions: permeability in MDCK-MDR1 cells
Method: High throughput […]1 permeability was performed in the Transwell® 0.4 μm polycarbonate membrane 96-well system with modified methods (Refs. 38-39). […]1 cells were maintained at 37° C. in a humidified incubator with an atmosphere of 5% CO2. The cells were cultured in 75 cm^2 flasks with Dulbecco's Modified Eagle's Medium (DMEM) containing 10% fetal bovine serum (FBS), 1% non-essential amino acids (NEAA), 100 units/ml of penicillin, and 100 μg/ml of streptomycin. The […]1 cells were seeded onto inserts at a density of 2×10^4 and 1×10^4 cells/insert separately. The medium in the wells was exchanged each other day, and the trans epithelial electrical resistance (TEER) value was measured using an epithelial volt-ohm meter (Millipore, Billerica, Massachusetts). […] For transport experiments, each cultured monolayer on the 96-well plate was washed twice with a transport buffer (HBSS/25 mM HEPES, pH 7.4). The permeability assay was initiated by the addition of each compound solution (10 μmol/L) into inserts (apical side, A) or receivers (basolateral side, B). The MDCKII-MDR1 cell monolayers were incubated for 1 hour at 37° C. Fractions were collected from receivers (if apical to basal permeability) or inserts (if basal to apical permeability), and concentrations were assessed by UPLC/MS (Waters; Milford, MA). All compounds were tested in triplicates. The A→B (or B→A) apparent permeability coefficients (Papp) of each compound were calculated using the equation, Papp=dQ/dt×1/AC0, where dQ/dt equals the flux of a drug across the monolayer, A equals the total insert well surface area, and C0 is the initial concentration of substrate in the donor compartment. The efflux ratio was determined by dividing the Papp in the B-A direction by the Papp in the A-B direction.

O=C1CCC(N2C(=O)c3ccc(NS(=O)(=O)c4ccccc4OC(F)(F)F)cc3C2=O)C(=O)N1 (centres unmarked) [Compound 1, N-(2-(2,6-dioxopiperidin-3-yl)-1,3-dioxoisoindolin-5-yl)-2-(trifluoromethoxy)benzenesulfonamide]
Plasma protein binding [1]: 99.3%
antiproliferative activity in absence of CRBN [2]: abolished
Plasma protein binding [3]: 99.1%
Sol. [4]: 67 µM
Papp [5]: 2.3 ×10⁻⁶ cm/s
